US20200368315A1, “ANTIMICROBIAL PEPTIDES AND ADMIXTURES THEREOF SHOWING ANTIMICROBIAL ACTIVITY AGAINST GRAM-NEGATIVE PATHOGENS” (priority 2017, published 2020)
Read-outs that look alike come from different tables or passages of the source. No end group written: not given here.

Legend:
[1] = test system: E. aerogenes LMG 02094; assay type: cell-based, Enterobacter aerogenes; conditions: for MICb: MIC of GNP alone; for MICbc: MIC of GNP when used with the MICac concentration of nisin; for MICac: MIC of nisin in combination with the GNP at the MICbc concentration
Description: (§1) The test of synergistic effect was processed by conducting standard chequerboard broth microdilution assays. Nisin (Drug X) was loaded two fold serially diluted from row 1 to 10 in X-axis while GNPs (Drug Y) were loaded in eight two fold serially diluted concentrations from line A to H in Y-axis (FIG. 1). The original concentrations of peptides were MICs of each. Row 11 are used as growth control with no peptide was included, while row 12 with MHB medium-only wells was included as a sterility control as referred before. 50 uL fresh bacterial suspension was added to well 1-11 and final volume of each well on the plate is 100 uL.
(§2) To determine whether the combination therapy is additive, synergistic or antagonistic, fractional inhibitory concentration (FIC) indices were calculated. FICI=FICa+FICb=MICac/MICa+MICbc/MICb. The MICa/MICb is the MIC of compound A/B alone. MICac is the MIC of compound A in combination with compound B and MICbc is the MIC of compound B when it was combination with compound A. […]. FICa is FIC of compound A while FICb is FIC of compound B. The FICI is interpreted as follows: synergistic, FICI≤0.5; additive, 0.5<FICI<1; indifferent, 1<FICI<2; antagonistic, FICI>2.

[2] = test system: E. coli LMG15862; assay type: cell-based, Escherichia coli; conditions: for MICb: MIC of GNP alone; for MICbc: MIC of GNP when used with the MICac concentration of nisin; for MICac: MIC of nisin in combination with the GNP at the MICbc concentration
Description: as §1, §2

[3] = test system: K. pneumoniae LMG20218; assay type: cell-based, Klebsiella pneumoniae; conditions: for MICb: MIC of GNP alone; for MICbc: MIC of GNP when used with the MICac concentration of nisin; for MICac: MIC of nisin in combination with the GNP at the MICbc concentration
Description: as §1, §2

[4] = test system: P. aeruginosa LMG 6395; assay type: cell-based, Pseudomonas aeruginosa; conditions: for MICb: MIC of GNP alone; for MICbc: MIC of GNP when used with the MICac concentration of nisin; for MICac: MIC of nisin in combination with the GNP at the MICbc concentration
Description: as §1, §2

[5] = test system: A. baumannii LMG01041; assay type: cell-based, Acinetobacter baumannii; conditions: for MICb: MIC of GNP alone; for MICbc: MIC of GNP when used with the MICac concentration of nisin; for MICac: MIC of nisin in combination with the GNP at the MICbc concentration
Description: as §1, §2

[6] = test system: K. pneumoniae LMG20218; conditions: for MICb: MIC of GNP alone; for MICbc: MIC of GNP in combination with vancomycin at the MICac concentration; for MICac: MIC of vancomycin in combination with the GNP at the MICbc concentration
Protocol: (§3) The test of synergistic effect was processed by conducting standard chequerboard broth microdilution assays. […] Row 11 are used as growth control with no peptide was included, while row 12 with MHB medium-only wells was included as a sterility control as referred before. 50 uL fresh bacterial suspension was added to well 1-11 and final volume of each well on the plate is 100 uL.
(§4) The test of synergistic effect was processed as method 1.4.
as §2

[7] = test system: A. baumannii LMG01041; conditions: for MICb: MIC of GNP alone; for MICbc: MIC of GNP in combination with vancomycin at the MICac concentration; for MICac: MIC of vancomycin in combination with the GNP at the MICbc concentration
Protocol: as §3, §4, §2

[8] = test system: E. coli LMG15862; conditions: for MICb: MIC of GNP alone; for MICbc: MIC of GNP in combination with vancomycin at the MICac concentration; for MICac: MIC of vancomycin in combination with the GNP at the MICbc concentration
Protocol: as §3, §4, §2

[9] = test system: E. aerogenes LMG 02094; conditions: for MICb: MIC of GNP alone; for MICbc: MIC of GNP in combination with vancomycin at the MICac concentration; for MICac: MIC of vancomycin in combination with the GNP at the MICbc concentration
Protocol: as §3, §4, §2

[10] = test system: P. aeruginosa LMG 6395; conditions: for MICb: MIC of GNP alone; for MICbc: MIC of GNP in combination with vancomycin at the MICac concentration; for MICac: MIC of vancomycin in combination with the GNP at the MICbc concentration
Protocol: as §3, §4, §2

Substance | MICb [1] | MICb [2] | MICbc [2] | MICac [2] | MICb [3] | MICbc [3] | MICac [3] | MICb [4] | MICbc [4] | MICac [4] | MICb [5] | MICb [6] | MICb [7] | MICb [8] | MICbc [8] | MICac [8] | MICb [9] | MICb [10] | MICbc [10] | MICac [10] | also measured
KIVQRIKKWLR-NH2 [GNP8-2] | 256 µM | 16 µM | 2 µM | 1.5 µM | 32 µM | 2 µM | 0.75 µM | 16 µM | 4 µM | 4.5 µM | 128 µM | 32 µM | 128 µM | 16 µM | 2 µM | 4 µM | 256 µM | 16 µM | 2 µM | 16 µM | MICbc [1]: 1 µM; MICac [1]: 4 µM; MICbc [5]: 16 µM; MICac [5]: 0.375 µM; MICbc [6]: 8 µM; MICac [6]: 16 µM; MICbc [7]: 4 µM; MICac [7]: 4 µM; MICbc [9]: 16 µM; MICac [9]: 12 µM
AIVQRIKKWLR-NH2 [GNP8-3] | 128 µM | 12 µM | 1.5 µM | 1.5 µM | 24 µM | 3 µM | 1.5 µM | 16 µM | 8 µM | 4.5 µM | 128 µM | 24 µM | 128 µM | 12 µM | 3 µM | 4 µM | 128 µM | 16 µM | 8 µM | 4 µM | MICbc [1]: 8 µM; MICac [1]: 4 µM; MICbc [5]: 32 µM; MICac [5]: 0.375 µM; MICbc [6]: 3 µM; MICac [6]: 16 µM; MICbc [7]: 8 µM; MICac [7]: 4 µM; MICbc [9]: 16 µM; MICac [9]: 12 µM
RIKRRIKKWLR-NH2 [GNP8-5] | >256 µM | 24 µM | 3 µM | 3 µM | >256 µM | – | – | 32 µM | 8 µM | 9 µM | >256 µM | >256 µM | >256 µM | 24 µM | 3 µM | 4 µM | >256 µM | 32 µM | 8 µM | 16 µM | –
RIVQRIKKWR-NH2 [GNP8-6] | >256 µM | 256 µM | 64 µM | 6 µM | >256 µM | – | – | >256 µM | – | – | >256 µM | >256 µM | >256 µM | 256 µM | 16 µM | 8 µM | >256 µM | >256 µM | – | – | –
RIVQRIKKWL-NH2 [GNP8-1] | >256 µM | 32 µM | 4 µM | 1.5 µM | 64 µM | 1 µM | 3 µM | 16 µM | 4 µM | 4.5 µM | 128 µM | 64 µM | 128 µM | 32 µM | 4 µM | 8 µM | >256 µM | 16 µM | 2 µM | 16 µM | MICbc [5]: 16 µM; MICac [5]: 0.375 µM; MICbc [6]: 8 µM; MICac [6]: 16 µM; MICbc [7]: 16 µM; MICac [7]: 1 µM
